Literature values as cited in patent publication US20240261272A1, “LPA1 ANTAGONISTS FOR TREATING INTERSTITIAL LUNG DISEASE” (Bristol-Myers Squibb Company, priority 2022, published 2024).

How the values were obtained:
patients with IPF = conditions: cited from earlier work
patients with PPF = conditions: 52-week study period; cited from earlier work

## COC(=O)c1ccc2c(c1)NC(=O)/C2=C(\Nc1ccc(N(C)C(=O)CN2CCN(C)CC2)cc1)c1ccccc1 [nintedanib]
Patients with IPF
  decline in lung function (in words): significantly reduce the decline in lung function
Patients with PPF
  progression of lung fibrosis, annual rate of decline in FVC versus placebo (in words): slower progression of lung fibrosis than those who received placebo

## Cc1ccc(=O)n(-c2ccccc2)c1 [pirfenidone]
Patients with IPF
  decline in lung function (in words): significantly reduce the decline in lung function
